According to patent US6379649B1, “Imidazo(1,2-a)pyridines as peripheral benzodiazepine receptor binding agents” (Australian Nuclear Science & Technology Organisation, priority 1998, dated 2002):

What was measured:
[1] = biological target: T1, peripheral benzodiazepine receptor (Rattus norvegicus, UniProt P16257); assay: Pretreatment (blocking) of uptake of radiolabelled compounds in rats; format: in vivo; set-up: high uptake in the tissues which have known PBR sites; from tissue; host or cells: living rats; organs with PBR sites; details: pretreatment with unlabelled substance (1 mg/kg)
[2] = biological target: central benzodiazepine receptor; assay: In vitro binding assay for central benzodiazepine receptors ([^3H]-Ro 15-1788, rat cortex membranes); details: rat cortex membrane / rat brain homogenates, [^3H]-Ro 15-1788 2 nM, 25° C., 45 minutes; read-out: IC50 (nM) CBR
Protocol: In Vitro Binding Assays for Central Benzodiazepine Receptors
Male Sprague Dawley rats are sacrificed by CO2 administration followed by cervical dislocation. Cortex is removed and placed in 20 volumes of ice-cold buffer ([…] Tris-HCl, pH 7.4) and minced finely with scissors. After homogenising the preparation will a polytron (PCU Kinematica, Bioblock, Switzerland) with one 10-second burst at a setting of 6, the suspension is centrifuged at 20,000 g for 20 minutes at 4° C. The pellets are resuspended in the previous buffer with a dounce (manual homogeniser). After the second centrifugation, the pellet is suspended in a final buffer (50 nM Tris/HCl, 0.32M sucrose, pH 7.4) to yield an appropriate protein concentration. Protein measurements are made by Lowry's method using bovine serum albumin as standard.
(§1) Non-specific binding is determined by blocking with cold Flumazenil (20 μM). Incubation is terminated by rapid filtration through Whatman GF/B glass fiber. Each sample tube and filter is immediately washed with 3 aliquots of 5 mL ice-cold […] Tris/HCl at pH 7.4. Filters are counted with a β-scintillation counter (Packard) to measure the amount of bound radioactivity. Ki and IC50 are calculated by EBDA/Ligand, iterative non-linear least squares curve-fitting programs (G. A. McPherson, J. Pharmacol. Methods 14, 213-228 (1985)).

[3] = biological target: T1, peripheral benzodiazepine receptor; assay: In vitro binding assay for peripheral benzodiazepine receptors ([^3H]-PK11195, rat kidney membranes); set-up: diluted kidney membrane preparation; from tissue; host or cells: rat kidney membranes (Sprague Dawley)
Protocol: In Vitro Binding Assays for Peripheral Benzodiazepine Receptors
Male Sprague Dawley rats are sacrificed by CO2 administration followed by cervical dislocation. Kidneys are removed and placed in 20 volumes of ice-cold buffer ([…] Tris-HCl, pH 7.4) and minced finely with scissors. After homogenising the preparation with a polytron (PCU Kintematica, Bioblock, Switzerland) with one 10-second burst at a setting of 10, the suspension is centrifuged at 49,000 g for 15 minutes at 4° C. The pellets are resuspended in the previous buffer with a dounce (manual homogeniser) to yield an appropriate protein concentration. Protein measurements are made by Lowry's method using bovine serum albumin as standard.
as §1, with “PK11195 (10” for “Flumazenil (20”, “programs.” for “programs (G. A. McPherson, J. Pharmacol. Methods 14, 213-228 (1985)).”

Row | SMILES | effect of pretreatment on uptake of activity of the radiolabelled compounds in the tissues of interest [1] | IC50 [2] [nM] | melting point [°C] | IC50 [3] [nM]
1 | CN1C(=O)CN=C(c2ccccc2)c2cc(Cl)ccc21 [Diazepam] | only marginally | – | – | –
2 | CCCN(C)C(=O)Cc1c(-c2ccc(I)cc2)nc2ccc(Cl)cn12 [Example 4, 6-chloro-2-(4′-iodophenyl)-imidazo[1,2-a]pyridine-3-(N-methyl, N-propyl)-acetamide] | – | 117 | 170 to 172 | 0.98
3 | CCCN(CCC)C(=O)Cc1c(-c2ccc(I)cc2)nc2ccc(Cl)cn12 [Example 5, 6-chloro-2-(4′-iodophenyl)-imidazo[1,2-a]pyridine-3-(N,N-dipropyl)-acetamide] | – | > 1000 | 152 to 153 | 3.91
4 | CCCCN(CCCC)C(=O)Cc1c(-c2ccc(I)cc2)nc2ccc(Cl)cn12 [Example 7, 6-chloro-2-(4′-iodophenyl)-imidazo[1,2-a]pyridine-3-(N,N-dibutyl)-acetamide] | – | > 1000 | 250 to 252 | 177
5 | CCOC(=O)c1ncn2c1CN(C)C(=O)c1cc(F)ccc1-2 [Flumazenil] | only marginally | – | – | –
6 | CCC(C)N(C)C(=O)c1cc2ccccc2c(-c2ccccc2Cl)n1 (stereo not drawn) [PK 11195, 1-(2-chlorophenyl)-N-methyl-N-(1-methylpropyl)-3-isoquinolinecarboxamide] | significantly reduced | – | – | –
